These results are taken from publication PMC8786148, “The effects of magainin 2-derived and rationally designed antimicrobial peptides on Mycoplasma pneumoniae” (PLoS ONE, 2022).

In data set [1] the test system is Mycoplasma pneumoniae FH. Briefly: Biofilm assay (crystal violet, absorbance at 550 nm), strain FH. The following applies: initial 10^5 CFU/mL, 0% CO2, 6-8 days at 37°C, p < 0.005, Shirley-Williams test.
For a further data set, the system named is M. bovis. Conditions: cited from earlier work.
For the next data set, the system named is Histophilus somni. Details: method as in PMID 29771981. Conditions: bovine pathogen; cited from earlier work.
The subject of data set [2] is Mycoplasma pneumoniae FH. In words: Colorimetric assay (absorbance at 560 nm), strain FH. Conditions: initial 10^5 CFU/mL, 0% CO2, up to 30 μmol/L.
In data set [3] the test system is Mycoplasma pneumoniae FH. Briefly: Killing assay, strain FH. Conditions: 30 μmol/L AMP, 3 days.
A further data set has as its system Pasteurella multocida. Details: method as in PMID 29771981. Conditions: bovine pathogen; cited from earlier work.
For data set [4] the following is noted: previously reported; cited from earlier work.
For data set [5], the system named is M. pneumoniae strains FH, M52, Mac, Bru, and M129-B7. Briefly: Propidium iodide (PI) uptake assay, membrane disruption. Format: cell-based, Mycoplasma pneumoniae. The following applies: five strains; 10 μmol/L AMP; PI 5 μg/mL in PBS; read every 2 min up to 20 min; triplicate. On the procedure:
We performed the PI uptake assays based on the previously described method with modification for M. pneumoniae. M. pneumoniae strains FH, M52, Mac, Bru, and M129-B7 were cultured as described above. Briefly, the 90 mL culture was done in PPLO-based medium for 6 days to observe the medium color change from red to yellow. The mycoplasma in the culture medium was centrifuged at 11,740g for 30 min at 4°C, and the precipitation was suspended in 20 mL phosphate buffered saline (PBS) by passing through a 60 mm-length 25-gauge needle (Top Corporation, Tokyo, Japan) three times. The suspension was centrifuged again at 11,740g for 30 min at 4°C, and 2.25 mL PBS was added to the precipitation. The 2× mycoplasma suspension was prepared by passing through a 60 mm-length 25-gauge needle five times. When using heat-killed M. pneumoniae (HKMp), the 2× suspension was heated at 95°C for 10 min. The 2× PI assay reaction mix based on PBS containing 20 μmol/L of an antimicrobial peptide or saline, and 10 μg/mL PI (Dojindo, Tokyo, Japan). Each assay was performed with a 96-well black flat-bottomed plate (PerkinElmer, Waltham, MA, USA) using a final cell volume of 100 μL prepared by mixing 2× mycoplasma suspension and 2× PI assay reaction mix at 1:1 in volume ratio. The intercalation fluorescence of PI was measured by using an Infinite 200 Pro F Plex microplate reader (Tecan, Zürich, Switzerland) every 2 min, with an excitation filter at 535 nm (half width: 25 nm) and an emission filter at 620 nm (half width: 20 nm). The averages and standard deviations of the fluorescent intensities was calculated, and normalised by an average fluorescence between 10 and 20 min of HKMp as 100% relative fluorescence, and by a minimum average fluorescence between 0 and 20 min of whole data as 0% relative fluorescence.

A further data set relates to Mannheimia haemolytica. Details: method as in PMID 29771981. Conditions: bovine pathogen; cited from earlier work.

With “H-TVIEVASKMCSKMRLLKGLCKSITKRFLRR-NH2 [NK2A, reference compound]”, the “Concentration with statistically significant effect in the biofilm assay” value in the data set with Mycoplasma pneumoniae FH [1] stood at 30 µmol/L. In the data set on M. bovis, the “Effective concentration against M. bovis” value was 20 µmol/L. The “Effective concentration against Histophilus somni” value in the data set with Histophilus somni was 5 µmol/L. The “Effect in the colorimetric assay” value in the data set with Mycoplasma pneumoniae FH [2] is on record as “no difference”. Besides, in the data set with Mycoplasma pneumoniae FH [3] (Welch's t test, p < 0.005), the “Killing assay result compared with saline” value is reported as “limited influence on the growth”. Moreover, the “Cell numbers (CFU/mL) after treatment with antimicrobial peptides, killing assay” value in the data set on Mycoplasma pneumoniae FH [3] (initial 10^6 CFU/mL, triplicate, mean, saline 3.59×10^6) is 2.87×10^6 CFU/mL. For the same substance, in the data set on Pasteurella multocida, the “Effective concentration against Pasteurella multocida” value is 5 µmol/L. Also, the “Haemolysis (concentration with haemolytic effect)” value in data set [4] is 5 µmol/L. For the same substance, the “PI fluorescence compared with live Mp without peptide” value in data set [5] is “the PI fluorescence arose”. In addition, the “Effective concentration against Mannheimia haemolytica” value with Mannheimia haemolytica was 5 µmol/L.
